We go through five compounds from ChEMBL document CHEMBL1127093, “Competitive NMDA receptor antagonists: synthesis of -ketophosphonate-substituted piperidine carboxylic acid derivatives” (Bioorg Med Chem Lett, 1993).

What is called IC50 is the concentration that gives 50% inhibition. A lower IC50 goes with greater potency.

The target of the test is Glutamate NMDA receptor. Description: Binding potency for NMDA site of the glutamate receptor complex using rat brain cortical membranes in a competitive binding assay with [3H]CPP as the radioligand. It counts as cell membranes, Membrane.
For `O=C(CP(=O)(O)O)[C@H]1CCCN[C@H]1C(=O)O`, the 50% inhibitory concentration (IC50) amounted to 0.04 µM.

Compound `C[C@]1(C(=O)CP(=O)(O)O)CCCN[C@H]1C(=O)O` yielded a 50% inhibitory concentration (IC50) of 0.32 µM.

`O=C(CP(=O)(O)O)C1=CCCN[C@H]1C(=O)O` had an IC50 of 0.0076 µM.

On to `C[C@]1(C(=O)CP(=O)(O)O)C=CCN[C@H]1C(=O)O`, for which the IC50 was found to be 0.0032 µM.

As for `C[C@@H]1CCN[C@@H](C(=O)O)[C@H]1C(=O)CP(=O)(O)O`, the IC50 was 0.015 µM.
